Where two headings read alike, the source gives them in different places.
Assays:
CSF1R = CSF1R (Homo sapiens (Human), UniProt P07333); experiment: CSF1R enzymatic inhibitory assay (Invitrogen Z'-LYTE, FRET); format: biochemical;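 note: kinase phosphorylates a tyrosine on a coumarin/fluorescein FRET peptide, a protease cuts peptide left unphosphorylated, inhibition quantified from the donor-to-acceptor emission ratio with excitation at 400 nm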
[1] = tested on: P-MAPK (ERK1/2) in CSF-1 stimulated bone-marrow derived macrophages; experiment: Effect of CSF1R inhibitors on MAPK signaling in mouse bone-marrow derived macrophages; format: cell-based; details: fold change relative to PLX3397 (IC50 inhibitor/IC50 PLX3397), P-MAPK/total MAPK, 10 ng/mL CSF-1
[2] = Z'-LYTE assay, ATP concentration equal to Km, average of at least 2 titration curves, read-out: CSF1R (IC50)

Chain of CSF1R (P07333 20-972): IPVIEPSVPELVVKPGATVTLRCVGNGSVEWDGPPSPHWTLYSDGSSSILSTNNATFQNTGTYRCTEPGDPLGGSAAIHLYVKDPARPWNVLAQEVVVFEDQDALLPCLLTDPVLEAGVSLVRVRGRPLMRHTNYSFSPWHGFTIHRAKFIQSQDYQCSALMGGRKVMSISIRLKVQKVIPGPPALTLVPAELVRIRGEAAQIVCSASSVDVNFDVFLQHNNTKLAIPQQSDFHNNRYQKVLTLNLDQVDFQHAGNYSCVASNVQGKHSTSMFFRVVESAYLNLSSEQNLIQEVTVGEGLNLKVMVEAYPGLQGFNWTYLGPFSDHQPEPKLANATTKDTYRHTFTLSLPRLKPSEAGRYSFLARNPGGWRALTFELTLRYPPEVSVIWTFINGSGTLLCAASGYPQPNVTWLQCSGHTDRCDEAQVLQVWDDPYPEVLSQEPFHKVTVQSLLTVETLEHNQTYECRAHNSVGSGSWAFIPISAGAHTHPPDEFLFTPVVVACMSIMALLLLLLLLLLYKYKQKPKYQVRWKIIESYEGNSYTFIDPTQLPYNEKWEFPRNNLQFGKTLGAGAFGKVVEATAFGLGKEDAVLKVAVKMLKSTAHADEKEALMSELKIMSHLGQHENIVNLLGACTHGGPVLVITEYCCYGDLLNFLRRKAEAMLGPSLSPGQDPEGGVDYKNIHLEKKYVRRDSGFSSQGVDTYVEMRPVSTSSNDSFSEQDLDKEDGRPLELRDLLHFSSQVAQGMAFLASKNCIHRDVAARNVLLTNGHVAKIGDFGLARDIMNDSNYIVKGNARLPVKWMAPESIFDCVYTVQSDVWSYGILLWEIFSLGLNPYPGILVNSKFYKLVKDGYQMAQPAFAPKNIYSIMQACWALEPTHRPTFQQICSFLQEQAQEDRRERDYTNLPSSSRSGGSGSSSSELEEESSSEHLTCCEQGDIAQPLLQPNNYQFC

SMILES | IC50 (CSF1R) | MAPK (fold) [1] | IC50 (CSF1R; [2])
COc1cccc(CN(C)c2ncnc3[nH]c(-c4ccc(CCC(=O)O)cc4)cc23)c1 [FAB01-23, 3-(4-(4-((3-Methoxybenzyl)(methyl)amino)-7H-pyrrolo[2,3-d]pyrimidin-6-yl)phenyl)propanoic acid] | 0.2 nM | >5 fold | 
COc1ccc(CN(C)c2ncnc3[nH]c(-c4ccc(CCC(=O)O)cc4)cc23)cc1OC [FAB 01-24, 3-(4-(4-((3,4-Dimethoxybenzyl)(methyl)amino)-7H-pyrrolo[2,3-d]pyrimidin-6-yl)phenyl)propanoic acid] |  | >5 fold | 0.6 nM
CN(Cc1ccccc1)c1ncnc2[nH]c(-c3ccccc3CO)nc12 [JKS02-027, (2-(6-(Benzyl(methyl)amino)-9H-purin-8-yl)phenyl)methanol] |  | >3 fold | 1.2 ± 0.2 nM
Cc1cccc(CN(C)c2ncnc3[nH]c(-c4ccc(C5CCCC(=O)O5)cc4)cc23)c1 (centres unmarked) [LR-1-124, 6-(4-(4-(Methyl(3-methylbenzyl)amino)-7H-pyrrolo[2,3-d]pyrimidin6-yl)phenyl)tetrahydro-2H-pyran-2-one] |  | 2.1 fold | 0.8 ± 0.1 nM
CN(Cc1ccc(F)cc1)c1ncnc2[nH]c(-c3ccc(CO)cc3)nc12 [TIA02-134, N-Methyl-N-(4-fluorobenzyl)-8-(4-(hydroxymethyl)phenyl)-9H-purin-6-amine] |  | >3 fold | 8.8 ± 0.3 nM
CN(Cc1cccnc1)c1ncnc2[nH]c(-c3ccc(CO)cc3)nc12 [TIA02-166, N-Methyl-N-(pyridin-3-ylmethyl)-8-(4-(hydroxymethyl)phenyl)-9H-purin-6-amine] |  | >3 fold | 2.1 ± 0.4 nM
Cc1cccc(CN(C)c2ncnc3[nH]c(-c4ccc(CO)cc4)nc23)c1 [TIA02-172, N-Methyl-N-(3-methylbenzyl)-8-(4-(hydroxymethyl)phenyl)-9H-purin-6-amine] |  | >5 fold | 1.5 ± 0.2 nM
OCc1ccc(-c2nc3c(N4CCCC4c4ccccc4)ncnc3[nH]2)cc1 (centres unmarked) [TIA02-176, 8-(4-(Hydroxymethyl)phenyl)-6-(2-phenylpyrrolidin-1-yl)-9H-purine] |  | >3 fold | 1.9 ± 0.2 nM
CN(CC1CCCCC1)c1ncnc2[nH]c(-c3ccc(CO)cc3)nc12 [TIA03-024, N-Methyl-N-(cyclohexylmethyl)-8-(4-(hydroxymethyl)phenyl)-9H-purin-6-amine] |  | 0.9 fold | 0.7 nM
COc1ccccc1CN(C)c1ncnc2[nH]c(-c3ccc(CO)cc3)nc12 [TIA03-106, N-(2-Methoxybenzyl)-N-methyl-8-(4-(hydroxymethyl)phenyl)-9H-purin-6-amine] |  | >3 fold | 4.2 ± 1.4 nM
CN(CC1CCCC1)c1ncnc2[nH]c(-c3ccc(CO)cc3)nc12 [TIA03-188, N-Methyl-N-(cyclopentylmethyl)-8-(4-(hydroxymethyl)phenyl)-9H-purin-6-amine] |  | 0.6 fold | 0.3 ± 0.2 nM
CN(Cc1ccccc1O)c1ncnc2[nH]c(-c3ccc(CO)cc3)nc12 [TIA04-009, N-Methyl-N-(2-hydroxybenzyl)-8-(4-(hydroxymethyl)phenyl)-9H-purin-6-amine] |  | >3 fold | 2.3 ± 0.3 nM
CN(CC1CCOC1)c1ncnc2[nH]c(-c3ccc(CO)cc3)nc12 (centres unmarked) [TIA04-049, N-Methyl-N-(tetrahydrofuran-3-ylmethyl)-8-(4-(hydroxymethyl)phenyl)-9H-purin-6-amine] |  | >3 fold | 4.6 ± 0.6 nM
CN(CC1CCOCC1)c1ncnc2[nH]c(-c3ccc(CO)cc3)nc12 [TIA04-051, N-Methyl-N-(oxan-4-ylmethyl)-8-(4-(hydroxymethyl)phenyl)-9H-purin-6-amine] |  | 1 fold | 0.3 nM
CN(Cc1cccnc1)c1ncnc2[nH]c(-c3ccccc3)nc12 [TIA109, N-Methyl-8-phenyl-N-(pyridin-3-ylmethyl)-9H-purin-6-amine] |  |  | 2.2 nM
